From ChEMBL document CHEMBL1201862, “PubChem BioAssay data set” (2004)
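96-well plates; 48 h exposure; 5 concentrations. Endpoints by linear interpolation between flanking doses. Not reached: highest tested concentration assigned. GI50 = concentration required for 50% inhibition of growth.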 Calls of active or inactive are those of the source. Cut-off read from the data, not from the text of the source: active = GI50 up to about 1.1 µM and inactive = higher. Square brackets hold non-standard residues; d marks the D form. Peptide text beside a SMILES is read from it. * marks the point of attachment. ξ: configuration not given here. ξW = NC(Cc1c[nH]c2ccccc12)C(=O)O; X29 = O=C(O)[C@H]1CCC[C@H]1N*; ξF = NC(Cc1ccccc1)C(=O)O; Boc = CC(C)(C)OC(=O)*; ξK = NCCCCC(N)C(=O)O; ξT = CC(O)C(N)C(=O)O; tBu = CC(C)(C)*

Legend:
Test in all cases: NCI tumour cell line growth inhibition, 48 h
NCI-H522 = system: NCI-H522
IGROV-1 = system: IGROV-1
HL-60 = system: HL-60
NCI-H460 = system: NCI-H460
PC-3 = system: PC-3
SR = system: SR
NCI-H23 = system: NCI-H23
SF-295 = system: SF-295
SK-OV-3 = system: SK-OV-3
RXF 393 = system: RXF 393
LOX IMVI = system: LOX IMVI
KM12 = system: KM12
HOP-62 = system: HOP-62
CAKI-1 = system: CAKI-1
OVCAR-4 = system: OVCAR-4
TK-10 = system: TK-10
OVCAR-8 = system: OVCAR-8
A498 = system: A498
HOP-92 = system: HOP-92
CCRF-CEM = system: CCRF-CEM
MOLT-4 = system: MOLT-4
NCI-H226 = system: NCI-H226
UO-31 = system: UO-31
SNB-19 = system: SNB-19
UACC-257 = system: UACC-257
OVCAR-3 = system: OVCAR-3
OVCAR-5 = system: OVCAR-5
SN12C = system: SN12C
SK-MEL-2 = system: SK-MEL-2
DU-145 = system: DU-145
SK-MEL-28 = system: SK-MEL-28
HCT-15 = system: HCT-15
U-251 = system: U-251
MDA-MB-231 = system: MDA-MB-231
MDA-N = system: MDA-N
786-0 = system: 786-0
K562 = system: K562
SF-268 = system: SF-268
EKVX = system: EKVX
RPMI-8226 = system: RPMI-8226
HCC 2998 = system: HCC 2998
COLO 205 = system: COLO 205
ACHN = system: ACHN
SF-539 = system: SF-539
Hs-578T = system: Hs-578T
NCI/ADR-RES = system: NCI/ADR-RES
MCF7 = system: MCF7
M14 = system: M14
SK-MEL-5 = system: SK-MEL-5
SW-620 = system: SW-620
UACC-62 = system: UACC-62
T47D = system: T47D
HT-29 = system: HT-29
HCT-116 = system: HCT-116
Malme-3M = system: Malme-3M
MDA-MB-435 = system: MDA-MB-435
SNB-75 = system: SNB-75
A549 = system: A549

CC1(C)CCC[C@]2(C)[C@H]3[C@H](C#N)c4cc(O)c(O)cc4O[C@@]3(C)CC[C@@H]12
GI50 (NCI-H522): > 10 µM (inactive)
GI50 (IGROV-1): > 10 µM (inactive)
GI50 (HL-60): > 10 µM (inactive)
GI50 (NCI-H460): > 10 µM (inactive)
GI50 (PC-3): > 10 µM (inactive)
GI50 (SR): > 10 µM (inactive)
GI50 (NCI-H23): > 10 µM (inactive)
GI50 (SF-295): > 10 µM (inactive)
GI50 (SK-OV-3): > 10 µM (inactive)
GI50 (RXF 393): > 10 µM (inactive)
GI50 (LOX IMVI): > 10 µM (inactive)
GI50 (KM12): > 10 µM (inactive)
GI50 (HOP-62): > 10 µM (inactive)
GI50 (CAKI-1): > 10 µM (inactive)
GI50 (OVCAR-4): > 10 µM (inactive)
GI50 (TK-10): > 10 µM (inactive)
GI50 (OVCAR-8): > 10 µM (inactive)
GI50 (A498): > 10 µM (inactive)
GI50 (HOP-92): > 10 µM (inactive)
GI50 (CCRF-CEM): > 10 µM (inactive)
GI50 (MOLT-4): > 10 µM (inactive)
GI50 (NCI-H226): > 10 µM (inactive)
GI50 (UO-31): 5.87 µM (inactive)
GI50 (SNB-19): > 10 µM (inactive)
GI50 (UACC-257): > 10 µM (inactive)
GI50 (OVCAR-3): > 10 µM (inactive)
GI50 (OVCAR-5): > 10 µM (inactive)
GI50 (SN12C): > 10 µM (inactive)
GI50 (SK-MEL-2): > 10 µM (inactive)
GI50 (DU-145): > 10 µM (inactive)
GI50 (SK-MEL-28): > 10 µM (inactive)
GI50 (HCT-15): > 10 µM
GI50 (U-251): > 10 µM (inactive)
GI50 (MDA-MB-231): > 10 µM (inactive)
GI50 (MDA-N): > 10 µM (inactive)
GI50 (786-0): > 10 µM (inactive)
GI50 (K562): > 10 µM (inactive)
GI50 (SF-268): > 10 µM (inactive)
GI50 (EKVX): > 10 µM (inactive)
GI50 (RPMI-8226): > 10 µM (inactive)
GI50 (HCC 2998): > 10 µM (inactive)
GI50 (COLO 205): > 10 µM (inactive)
GI50 (ACHN): > 10 µM (inactive)
GI50 (SF-539): > 10 µM (inactive)
GI50 (Hs-578T): > 10 µM (inactive)
GI50 (NCI/ADR-RES): > 10 µM (inactive)
GI50 (MCF7): > 10 µM (inactive)
GI50 (M14): > 10 µM (inactive)
GI50 (SK-MEL-5): > 10 µM (inactive)
GI50 (SW-620): > 10 µM (inactive)

CC(OC(C)(C)C)C(NC(=O)C(CCCCNC(=O)OC(C)(C)C)NC(=O)C(Cc1c[nH]c2ccccc12)NC(=O)C(N)Cc1ccccc1)C(=O)NC(Cc1ccccc1)C(=O)N[C@@H]1CCC[C@@H]1C(=O)O (stereo partly specified) (H-[ξF][ξW][ξK](Boc)[ξT](tBu)[ξF]-X29)
GI50 (NCI-H522): 20.7 µM (inactive)
GI50 (IGROV-1): 51.4 µM (inactive)
GI50 (HL-60): 29 µM (inactive)
GI50 (NCI-H460): > 100 µM (inactive)
GI50 (UACC-62): 33.4 µM (inactive)
GI50 (T47D): 33.8 µM (inactive)
GI50 (PC-3): 45.6 µM (inactive)
GI50 (SR): 35.5 µM (inactive)
GI50 (NCI-H23): 34 µM (inactive)
GI50 (HT-29): 29.6 µM (inactive)
GI50 (SF-295): > 100 µM (inactive)
GI50 (SK-OV-3): 38.8 µM (inactive)
GI50 (RXF 393): > 100 µM (inactive)
GI50 (LOX IMVI): 20.8 µM (inactive)
GI50 (KM12): 19.4 µM (inactive)
GI50 (HOP-62): > 100 µM (inactive)
GI50 (HCT-116): 39.5 µM (inactive)
GI50 (Malme-3M): 40 µM (inactive)
GI50 (CAKI-1): > 100 µM (inactive)
GI50 (OVCAR-4): 71.4 µM (inactive)
GI50 (OVCAR-8): > 100 µM (inactive)
GI50 (HOP-92): 30.3 µM (inactive)
GI50 (CCRF-CEM): 36.2 µM (inactive)
GI50 (MOLT-4): 41.6 µM (inactive)
GI50 (NCI-H226): 28.5 µM (inactive)
GI50 (UO-31): > 100 µM (inactive)
GI50 (SNB-19): 33.6 µM (inactive)
GI50 (UACC-257): > 100 µM (inactive)
GI50 (OVCAR-3): 37.1 µM (inactive)
GI50 (OVCAR-5): 23.2 µM (inactive)
GI50 (MDA-MB-435): 37.2 µM (inactive)
GI50 (SN12C): 28.2 µM (inactive)
GI50 (SK-MEL-2): 16.7 µM (inactive)
GI50 (DU-145): 46.2 µM (inactive)
GI50 (SK-MEL-28): 75.5 µM (inactive)
GI50 (SNB-75): 59.6 µM (inactive)
GI50 (HCT-15): > 10 µM
GI50 (U-251): 24.3 µM (inactive)
GI50 (MDA-MB-231): 38.6 µM (inactive)
GI50 (MDA-N): 52.1 µM (inactive)
GI50 (786-0): > 100 µM (inactive)
GI50 (K562): 51.6 µM (inactive)
GI50 (SF-268): 44.8 µM (inactive)
GI50 (EKVX): > 100 µM (inactive)
GI50 (RPMI-8226): 35.2 µM (inactive)
GI50 (HCC 2998): 19.7 µM (inactive)
GI50 (COLO 205): 27.4 µM (inactive)
GI50 (ACHN): > 100 µM (inactive)
GI50 (SF-539): 19.4 µM (inactive)
GI50 (A549): > 100 µM (inactive)
GI50 (Hs-578T): 19.9 µM (inactive)
GI50 (NCI/ADR-RES): > 100 µM (inactive)
GI50 (MCF7): 27 µM (inactive)
GI50 (M14): > 100 µM (inactive)
GI50 (SK-MEL-5): 11.1 µM (inactive)
GI50 (SW-620): 47.1 µM (inactive)
